Patent publication USRE39591E1, “6-O-substituted ketolides having antibacterial activity” (Abbott Laboratories, priority 1996, dated 2007)
Converted amounts (≈) assume the structure as drawn.

Tested on: up to 32 different microorganisms
Assay: in vitro antibacterial activity (MIC), agar dilution on Brain Heart Infusion (BHI) agar with Steers replicator
Format: cell-based
Conditions: unit assumed
Outline: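 MIC read visually: lowest drug level with no growth, slight haze or sparsely isolated colonies on the inoculum spot relative to drug-free control. Serial aqueous compound dilutions in BHI agar, 1:100 inoculum (1:10 slow strains), 20 to 24 hours at 35°-37° C.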

Compound `CC[C@H]1OC(=O)[C@H](C)C(=O)[C@H](C)[C@@H](O[C@@H]2O[C@H](C)C[C@H](N(C)C)[C@H]2O)[C@@](C)(OCC#Cc2ccc(C(=O)Nc3ccccn3)o2)C[C@@H](C)C(=O)[C@H](C)[C@H]2NC(=O)O[C@@]21C` [Example 256] has an MIC (organism code AA) of 0.05 µg/mL (≈ 0.0608 µM), an MIC (organism code BB) of 0.05 µg/mL (≈ 0.0608 µM) and an MIC (organism code CC) greater than 100 µg/mL. For the same compound, the MIC (organism code DD) was 0.05 µg/mL (≈ 0.0608 µM), the MIC (organism code EE) was 0.05 µg/mL (≈ 0.0608 µM) and the MIC (organism code FF) was 0.02 µg/mL (≈ 0.0243 µM). For the same compound, the MIC (organism code GG) was greater than 100 µg/mL, the MIC (organism code HH) was 0.1 µg/mL (≈ 0.122 µM) and the MIC (organism code II) was 0.02 µg/mL (≈ 0.0243 µM). It also gave an MIC (organism code JJ) of 0.01 µg/mL (≈ 0.0122 µM), an MIC (organism code KK) of 0.02 µg/mL (≈ 0.0243 µM) and an MIC (organism code LL) of 0.01 µg/mL (≈ 0.0122 µM). For the same compound, the MIC (organism code MM) was 25 µg/mL (≈ 30.4 µM), the MIC (organism code NN) was 0.2 µg/mL (≈ 0.243 µM) and the MIC (organism code OO) was 0.01 µg/mL (≈ 0.0122 µM). For the same compound, the MIC (organism code PP) was 0.1 µg/mL (≈ 0.122 µM), the MIC (organism code QQ) was 100 µg/mL (≈ 122 µM) and the MIC (organism code RR) was 0.2 µg/mL (≈ 0.243 µM). It also gave an MIC (organism code SS) greater than 100 µg/mL, an MIC (organism code TT) greater than 100 µg/mL and an MIC (organism code UU) of 1.56 µg/mL (≈ 1.9 µM). The MIC (organism code VV) was 0.05 µg/mL (≈ 0.0608 µM), the MIC (organism code WW) was 2 µg/mL (≈ 2.43 µM) and the MIC (organism code XX) was 0.03 µg/mL (≈ 0.0365 µM). It also gave an MIC (organism code YY) of 0.03 µg/mL (≈ 0.0365 µM), an MIC (organism code ZZ) of 16 µg/mL (≈ 19.4 µM) and an MIC (organism code ZZA) of 0.25 µg/mL (≈ 0.304 µM).
